Measured values from PMC9241302, “Identification of 2-(4-N,N-Dimethylaminophenyl)-5-methyl-1-phenethyl-1H-benzimidazole targeting HIV-1 CA capsid protein and inhibiting HIV-1 replication in cellulo” (BMC Pharmacology & Toxicology, 2022).
Where two headings read alike, the source gives them in different places.

Legend:
[1] = molecular target: HIV-1 CA (Human immunodeficiency virus type 1 group M subtype B, UniProt P12493); test: HIV-1 CA assembly inhibition assay (absorbance at 340 nm); assay type: biochemical; design: the capsid protein (CA) of the Gag polyprotein; made in house; host or cells: Escherichia coli BL21(DE3) pLysS
Experimental: The CA assembly assay was performed in a final volume of 70 µL in 384-well plates, with a final concentration of 5 mg/mL of purified recombinant HIV-1 CA in Phosphate/NaCl Buffer (NaH2PO4/Na2HPO4 50 mM, NaCl 100 mM, pH 7.4), as described for FIV CA [27, 31]. Absorbance was measured at 340 nm every 30 s in a multiplate reader VarioskanTM Flash Multimode Reader (Thermo Scientific, MA, US) at 37 °C for 30 min. The compounds were tested at a fixed initial dose of 25 or 50 µM (at 0.5% DMSO [v/v]) by adding 1 µL of the concentrated ligand to the well before starting the measurement. The controls were CA at 5 mg/mL in only 0.5% DMSO [v/v] and CA without DMSO. The criteria to select active compounds were the observation of at least 50% of assembly inhibition at these doses, based on the reduction of the OD value at 340 nm at the plateau value compared to the controls.

[2] = Cytotoxicity in human macrophages (PMA-stimulated THP-1 monocytes, MTT); assay type: cell-based; conditions: PMA-stimulated THP-1 monocytes (human macrophages), 48hs
Experimental: TZM-bl cells, U87-CD4-CCR5, murine macrophages (J774.1), and THP-1 monocytes (ATCC®TIB-202™) were grown following ATCC recommendations. Cells were seeded in a 96-well plate (10^4 cells in 200 µL culture medium) and incubated at 37 °C in a 5% CO2 atmosphere for 48 h, to allow cell adhesion before drug testing. For stimulation (THP-1 monocytes), cells were incubated with 100 nM of phorbol 12-myristate 13-acetate (PMA) for 48 h. […] A vehicle for control (0.4% DMSO) and negative wells (cells in medium) was used in each test. […] After removing the medium, formazan crystals were dissolved in 180 µL of DMSO and 20µL of MTT buffer (0.1 M glycine, 0.1 M NaCl, 0.5 mM EDTA, pH 10.5), and the absorbance at 560 nm was measured. […] Tests were performed in triplicate, in two independent experiments.

[3] = system: human red blood cells; test: Red blood cell lysis assay; assay type: cell-based; conditions: Erythrocyte, 24hs
Experimental: Human blood (blood discarded from the blood bank) collected in sodium citrate solution (3.8%) was centrifuged at 200 × g for 10 min at 4 °C. The plasma supernatant was removed and erythrocytes were suspended in ice-cold PBS. The cells were again centrifuged at 200 × g for 10 min at 4 °C. This procedure was repeated two more times to ensure the removal of any released hemoglobin. Once the supernatant was removed after the last wash, the cells were suspended in PBS to 2% w/v red blood cell solution. […] Ten replicates for each concentration were done and incubated for 24 h at 37 °C before analysis. Complete hemolysis was attained using neat water yielding the 100% control value (positive control). The release of hemoglobin into the supernatant was determined spectrophotometrically at 405 nm using a multiplate reader VarioskanTM Flash Multimode Reader (Thermo Scientific, MA, US). Results are expressed as the percentage of total hemoglobin released in the presence of the compounds. This percentage was calculated using the equation percentage hemolysis (%) = [(A1 − A0)/(Aw)] × 100, where A1 is the absorbance at 405 nm of the test sample at t = 24 h, A0 is the absorbance at 405 nm of the test sample at t = 0 h, and Aw is the absorbance at 405 nm of the positive control (water) at t = 24 h. […] The experiments were done in quintuplicate. AmpB was used as a positive control.

[4] = system: HIV-1 reverse transcription (pol viral DNA); test: qPCR quantification of reverse transcribed viral DNA in U87-CD4-CCR5 cells; assay type: cell-based; conditions: 10 µM, cells preincubated, DNA extracted 48 h post-infection
Experimental: U87-CD4-CCR5 cells were plated in a 24-wells plate at 1.25 × 10^5 cells per well. […] Total DNA was extracted 48 h post-infection using the AllPrep DNA/RNA Mini Kit (Qiagen, Venlo, Netherlands). […] The following program was used in the LightCycler 480 Real-Time PCR System (Roche, Basel, Switzerland): pre-incubation: 95 °C for 3 min, pre-amplification: 2 cycles of 95 °C for 15 s and 49 °C for 15 s, amplification: 40 cycles of 95 °C for 10 s, 58 °C for 20 s, 72 °C for 30 s, melting curve stage: 95 °C for 5 s, 55 °C for 1 min and then 97 °C with acquisition every 10 °C, cooling stage: 40 °C for 10 s. Serial dilution of the 8E5 cell line which contains 1 copy of HIV-1 proviral DNA per cell was used as a standard curve for viral RT products [46]. […] Results were calculated as the number of copies of Pol per copy of β-actin. Statistical analysis was performed using an unpaired, two-tailed, Mann–Whitney test with GraphPad Prism 7.0 software. Tests were performed in quadruplicate, in two independent experiments.

[5] = system: HIV-1 NL4-3 Ba-L; test: microbe, parasite or virus in culture; assay type: cell-based
Experimental: Compounds were first dissolved in DMSO to reach a concentration of 20 mM. They were further diluted to a 200 µM working stock and then further diluted to reach a starting concentration of 10 µM in the culture plate. U87-CD4-CCR5 cells were seeded in quadruplicate at 4000 cells/well in a final volume of 100 µL. The next day, 24 µL of the compound was added in serial 1:2 dilutions to the cells. Two hours later, 25 µL of infectious virus (NL4-3 Ba-L) were added to the cells with a TCID50 of 250. AZT at 10 µM was included as an inhibition control. The medium was replenished in the presence of compounds once every 3 to 4 days. The supernatant was collected every 3–4 days and analyzed for virus production by an in-house p24 capture ELISA. IC50 was calculated using “Quest Graph™ IC50 Calculator” (AAT Bioquest, Inc., https://www.aatbio.com/tools/ic50-calculator). Cytotoxicity of the compound was tested on U87-CD4-CCR5 cells in parallel by MTT assay (at the same protocol as in Sect. 3.5 but after 11 days of incubation))[39].

Compound: Cc1ccc2c(c1)nc(-c1ccc(N(C)C)cc1)n2CCc1ccccc1 [compound 696, 2-(4-N,N-dimethylaminophenyl)-5-methyl-1-phenethyl-1H-benzimidazole]
- Effect in p24 multimerization in vitro [1]: inhibited
- interference with the assembly of HIV-1 CA in vitro ([1]; compounds at 25 or 50 µM, CA 5 mg/mL, 30 min): interference with the assembly
- Effect in p24 multimerization in vitro ([1]; listed as C00002): inhibition
- EC50 at 48 h [2]: > 100000 nM
- EC50 [3]: > 100000 nM
- inhibition of HIV-1 reverse transcription (pol viral DNA by qPCR) [4]: did not show any significant effect
- EC50/IC50 [5]: > 21
- IC50 ([5]; Human immunodeficiency virus 1, U87/CD4/CCR5, 264 h, read-out: IC50, inhibition of HIV-1 replication): 3 µM
- IC50 ([5]; Human immunodeficiency virus 1, U87/CD4/CCR5, read-out: IC50 in U87 (μM)): 2.3 ± 0.6 µM
- inhibition of HIV-1 replication (in words) ([5]; U87-CD4-CCR5 cells, serial 1:2 dilutions from 10 µM): clear dose–response inhibition
- inhibition of HIV-1 replication ([5]; U87-CD4-CCR5 cells, two highest concentrations tested, after 11 days): more than 80%
- selective activity between mammalian cells and antiviral activity ([5]; cytotoxicity EC50 vs antiviral IC50): at least 10 times
